# Values of other authors, collected in PMC7449217, “The FDA-Approved Drug Nelfinavir Inhibits Lytic Cell-Free but Not Cell-Associated Nonlytic Transmission of Human Adenovirus” (Antimicrobial Agents and Chemotherapy, 2020).
# Read-outs that look alike come from different tables or passages of the source.
# Assays:
# HAdV-C2-dE3B-GFP = tested on: HAdV-C2-dE3B-GFP; design: method as in earlier work; conditions: A549, 1.25 μM compound, normalized to neg. ctr., cited from earlier work
# A549 cells = conditions: cited from earlier work
structure (smiles),measurement,setting,value
Cc1cn([C@H]2C[C@H](F)[C@@H](CO)O2)c(=O)[nH]c1=O [3'-deoxy-3'-fluorothymidine],Normalized mean read-outs: Infected nuclei,HAdV-C2-dE3B-GFP; analysis EPFL,0.12
same,Normalized mean read-outs: Infection index,HAdV-C2-dE3B-GFP; analysis EPFL,0.17
same,Normalized mean read-outs: Nuclei,HAdV-C2-dE3B-GFP; analysis EPFL,0.70
same,Normalized mean read-outs: Plaques,HAdV-C2-dE3B-GFP; analysis EPFL,0.00148
same,Normalized mean read-outs: Virus intensity,HAdV-C2-dE3B-GFP; analysis EPFL,0.32 AU
same,Normalized mean read-outs: Infected nuclei,HAdV-C2-dE3B-GFP; analysis UZH,0.13
same,Normalized mean read-outs: Infection index,HAdV-C2-dE3B-GFP; analysis UZH,0.15
same,Normalized mean read-outs: Nuclei,HAdV-C2-dE3B-GFP; analysis UZH,0.83
same,Normalized mean read-outs: Plaques,HAdV-C2-dE3B-GFP; analysis UZH,0.00429
same,Normalized mean read-outs: Virus intensity,HAdV-C2-dE3B-GFP; analysis UZH,0.30 AU
same,Toxic,A549 cells,no
Nc1c2ccccc2nc2ccccc12 [Aminacrine],Normalized mean read-outs: Infected nuclei,HAdV-C2-dE3B-GFP; analysis EPFL,0.60
same,Normalized mean read-outs: Infection index,HAdV-C2-dE3B-GFP; analysis EPFL,0.42
same,Normalized mean read-outs: Nuclei,HAdV-C2-dE3B-GFP; analysis EPFL,1.42
same,Normalized mean read-outs: Plaques,HAdV-C2-dE3B-GFP; analysis EPFL,0.67
same,Normalized mean read-outs: Virus intensity,HAdV-C2-dE3B-GFP; analysis EPFL,0.51 AU
same,Normalized mean read-outs: Infected nuclei,HAdV-C2-dE3B-GFP; analysis UZH,0.53
same,Normalized mean read-outs: Infection index,HAdV-C2-dE3B-GFP; analysis UZH,0.62
same,Normalized mean read-outs: Nuclei,HAdV-C2-dE3B-GFP; analysis UZH,0.87
same,Normalized mean read-outs: Plaques,HAdV-C2-dE3B-GFP; analysis UZH,0.75
same,Normalized mean read-outs: Virus intensity,HAdV-C2-dE3B-GFP; analysis UZH,0.50 AU
same,Toxic,A549 cells,no
Cc1cc(N)c2ccccc2[n+]1CCCCCCCCCC[n+]1c(C)cc(N)c2ccccc21 [Dequalinium dichloride],Normalized mean read-outs: Infected nuclei,HAdV-C2-dE3B-GFP; analysis EPFL,0.33
same,Normalized mean read-outs: Infection index,HAdV-C2-dE3B-GFP; analysis EPFL,0.46
same,Normalized mean read-outs: Nuclei,HAdV-C2-dE3B-GFP; analysis EPFL,0.71
same,Normalized mean read-outs: Plaques,HAdV-C2-dE3B-GFP; analysis EPFL,0.44
same,Normalized mean read-outs: Virus intensity,HAdV-C2-dE3B-GFP; analysis EPFL,0.38 AU
same,Normalized mean read-outs: Infected nuclei,HAdV-C2-dE3B-GFP; analysis UZH,0.49
same,Normalized mean read-outs: Infection index,HAdV-C2-dE3B-GFP; analysis UZH,0.62
same,Normalized mean read-outs: Nuclei,HAdV-C2-dE3B-GFP; analysis UZH,0.79
same,Normalized mean read-outs: Plaques,HAdV-C2-dE3B-GFP; analysis UZH,0.51
same,Normalized mean read-outs: Virus intensity,HAdV-C2-dE3B-GFP; analysis UZH,0.37 AU
same,Toxic,A549 cells,yes
CCCCCCCCCCCCCCCC[N+](C)(C)CCN(Cc1ccc(OC)cc1)c1ncccn1 [Thonzonium bromide],Normalized mean read-outs: Infected nuclei,HAdV-C2-dE3B-GFP; analysis EPFL,0.45
same,Normalized mean read-outs: Infection index,HAdV-C2-dE3B-GFP; analysis EPFL,0.56
same,Normalized mean read-outs: Nuclei,HAdV-C2-dE3B-GFP; analysis EPFL,0.81
same,Normalized mean read-outs: Plaques,HAdV-C2-dE3B-GFP; analysis EPFL,0.56
same,Normalized mean read-outs: Virus intensity,HAdV-C2-dE3B-GFP; analysis EPFL,0.50 AU
same,Normalized mean read-outs: Infected nuclei,HAdV-C2-dE3B-GFP; analysis UZH,0.54
same,Normalized mean read-outs: Infection index,HAdV-C2-dE3B-GFP; analysis UZH,0.63
same,Normalized mean read-outs: Nuclei,HAdV-C2-dE3B-GFP; analysis UZH,0.84
same,Normalized mean read-outs: Plaques,HAdV-C2-dE3B-GFP; analysis UZH,0.54
same,Normalized mean read-outs: Virus intensity,HAdV-C2-dE3B-GFP; analysis UZH,0.49 AU
